The text below walks through data of patent US7109193B2, “Tricyclic diazepines tocolytic oxytocin receptor antagonists” (Wyeth, priority 2001, dated 2006).

Structures are written as SMILES.

T1 sequence (P30518 whole entry): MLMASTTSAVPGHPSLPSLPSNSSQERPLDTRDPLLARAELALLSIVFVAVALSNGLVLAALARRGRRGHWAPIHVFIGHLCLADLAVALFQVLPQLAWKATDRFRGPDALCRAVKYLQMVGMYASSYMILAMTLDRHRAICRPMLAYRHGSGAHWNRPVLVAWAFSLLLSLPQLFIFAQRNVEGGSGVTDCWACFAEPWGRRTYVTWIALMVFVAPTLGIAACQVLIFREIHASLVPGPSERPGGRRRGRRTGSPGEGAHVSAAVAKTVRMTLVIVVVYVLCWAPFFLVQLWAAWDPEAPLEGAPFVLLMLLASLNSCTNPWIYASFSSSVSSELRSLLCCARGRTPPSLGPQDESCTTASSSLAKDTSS

The first assay has as its target T1, human vasopressin V2 receptor subtype (Homo sapiens, UniProt P30518).
T1 construct: host or cells: CHO cells (pZeoSV vector)
Description: Vasopressin binding in Chinese Hamster Ovary cell membranes expressing human vasopressin V2 subtype receptors. The settings on record: 100 nM, CHO cell membranes, [3H]arginine vasopressin, values without parentheses. The method in brief: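 Radioligand displacement on membranes from CHO cells stably expressing human V2 receptor, 25 to 50 μg protein/well, in 50 mM Tris-HCl pH 7.4 with MgCl2, BSA and protease inhibitors. [^3H]arginine vasopressin (8 nM working solution) incubated 60 min at room temperature; bound label measured by filtration and scintillation counting.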
Regarding `COc1cccc(-c2cc(OC)c(C(=O)N3Cc4ccc(C(=O)N5CCN(CCCN(C)C)CC5)n4Cc4ccccc43)cc2Cl)c1` [Example 252, {10-[(6-Chloro-3,3′-dimethoxy[1,1′-biphenyl]-4-yl)carbonyl]-10,11-dihydro-5H-pyrrolo[2,1-c][1,4]benzodiazepin-3-yl}{4-[3-(dimethylamino)propyl]-1-piperazinyl}methanone], the inhibition at 0.1 µM was 21%.
Consider `COc1cc(-c2ccccc2C)c(Cl)cc1C(=O)N1Cc2ccc(C(=O)N3CCN(CCCN(C)C)CC3)n2Cc2ccccc21` [Example 251, {10-[(6-Chloro-3-methoxy-2′-methyl[1,1′-biphenyl]-4-yl)carbonyl]-10,11-dihydro-5H-pyrrolo[2,1-c][1,4]benzodiazepin-3-yl}{4-[3-(dimethylamino)propyl]-1-piperazinyl}methanone], for which the inhibition at 0.1 µM worked out at 24%.
Consider `COc1ccccc1-c1ccc(C(=O)N2Cc3ccc(C(=O)N[C@H]4CN5CCC4CC5)n3Cc3ccccc32)cc1` [Example 296, N-[(3R)-1-Azabicyclo[2.2.2]oct-3-yl]-10-[(2′-methoxy[1,1′-biphenyl]-4-yl)carbonyl]-10,11-dihydro-5H-pyrrolo[2,1-c][1,4]benzodiazepine-3-carboxamide], for which the inhibition at 0.1 µM was 24%.
With `COc1cccc(-c2ccc(C(=O)N3Cc4ccc(C(=O)N5CCCN(C)CC5)n4Cc4ccccc43)cc2C)c1` [Example 64, {10-[(3′-Methoxy-2-methyl[1,1′-biphenyl]-4-yl)carbonyl]-10,11-dihydro-5H-pyrrolo[2,1-c][1,4]benzodiazepin-3-yl}(4-methyl-1,4-diazepan-1-yl)methanone], the inhibition at 0.1 µM came out at 19%.
Same read-out and setting: next, `COc1cc(C(=O)N2Cc3ccc(C(=O)N4CCN(C)CC4)n3Cc3ccccc32)ccc1-n1c(C)ccc1C` [Example 306, {10-[4-(2,5-Dimethyl-1H-pyrrol-1-yl)-3-methoxybenzoyl]-10,11-dihydro-5H-pyrrolo[2,1-c][1,4]benzodiazepin-3-yl}(4-methyl-1-piperazinyl)methanone]: 0%; `COc1cccc(-c2ccc(C(=O)N3Cc4ccc(C(=O)N5CCCN(C)CC5)n4Cc4ccccc43)cc2OC)c1` [Example 70, {10-[(2,3′-Dimethoxy[1,1′-biphenyl]-4-yl)carbonyl]-10,11-dihydro-5H-pyrrolo[2,1-c][1,4]benzodiazepin-3-yl}(4-methyl-1,4-diazepan-1-yl)methanone]: 11%; `CN1CCCN(C(=O)c2ccc3n2Cc2ccccc2N(C(=O)c2ccc(-c4cccc5ccccc45)cc2Cl)C3)CC1` [Example 71, {10-[2-Chloro-4-(1-naphthyl)benzoyl]-10,11-dihydro-5H-pyrrolo[2,1-c][1,4]benzodiazepin-3-yl}(4-methyl-1,4-diazepan-1-yl)methanone]: 13%.
Same read-out and setting: the same measure for `COc1cc(C(=O)N2Cc3ccc(C(=O)n4ccnc4)n3Cc3ccccc32)ccc1-c1cccc2ccccc12` [Example 291, 1H-Imidazol-1-yl-{10-[3-methoxy-4-(1-naphthyl)benzoyl]-10,11-dihydro-5H-pyrrolo[2,1-c][1,4]benzodiazepin-3-yl}methanone]: 5%; for `COc1cccc(-c2ccc(C(=O)N3Cc4ccc(C(=O)n5ccnc5)n4Cc4ccccc43)cc2C)c1` [Example 289, 1H-Imidazol-1-yl-{10-[(3′-methoxy-2-methyl[1,1′-biphenyl]-4-yl)carbonyl]-10,11-dihydro-5H-pyrrolo[2,1-c][1,4]benzodiazepin-3-yl}methanone]: 7%.
As to `COc1cc(C(=O)N2Cc3ccc(C(=O)N4CCN(C)CC4)n3Cc3ccccc32)ccc1-c1ccccc1C` [Example 53, {10-[(2-Methoxy-2′-methyl[1,1′-biphenyl]-4-yl)carbonyl]-10,11-dihydro-5H-pyrrolo[2,1-c][1,4]benzodiazepin-3-yl}(4-methyl-1-piperazinyl)methanone], the inhibition at 0.1 µM came to 23%.
On the same count and under the same terms, next, `COc1cccc(-c2ccc(C(=O)N3Cc4ccc(C(=O)N5CCN(C)CC5)n4Cc4ccccc43)cc2OC)c1` [Example 57, {10-[(2,3′-Dimethoxy[1,1′-biphenyl]-4-yl)carbonyl]-10,11-dihydro-5H-pyrrolo[2,1-c][1,4]benzodiazepin-3-yl}(4-methyl-1-piperazinyl)methanone]: 11%; `COc1cc(C(=O)N2Cc3ccc(C(=O)N4CCN(CCCN(C)C)CC4)n3Cc3ccccc32)ccc1-n1c(C)ccc1C` [Example 320, {4-[3-(Dimethylamino)propyl]-1-piperazinyl}{10-[4-(2,5-dimethyl-1H-pyrrol-1-yl)-3-methoxybenzoyl]-10,11-dihydro-5H-pyrrolo[2,1-c][1,4]benzodiazepin-3-yl}methanone]: 21%; `Cc1ccccc1-c1ccc(C(=O)N2Cc3ccc(C(=O)N4CCN(C)CC4)n3Cc3ccccc32)cc1` [Example 52, {10-[(2′-Methyl[1,1′-biphenyl]-4-yl)carbonyl]-10,11-dihydro-5H-pyrrolo[2,1-c][1,4]benzodiazepin-3-yl}(4-methyl-1-piperazinyl)methanone]: 17%.
For the compound `COc1cccc(-c2cc(OC)c(C(=O)N3Cc4ccc(C(=O)N[C@@H](CCCCNC(=O)OC(C)(C)C)C(N)=O)n4Cc4ccccc43)cc2Cl)c1` [Example 302, tert-Butyl (5S)-6-amino-5-[({10-[(6-chloro-3,3′-dimethoxy[1,1′-biphenyl]-4-yl)carbonyl]-10,11-dihydro-5H-pyrrolo[2,1-c][1,4]benzodiazepin-3-yl}carbonyl)amino]-6-oxohexylcarbamate], the inhibition at 0.1 µM was determined as 17%.
Still for that read-out and setting: the same measure for `COc1cc(-c2ccccc2C)c(Cl)cc1C(=O)N1Cc2ccc(C(=O)N[C@@H](CCCCNC(=O)OC(C)(C)C)C(N)=O)n2Cc2ccccc21` [Example 304, tert-Butyl (5S)-6-amino-5-[({10-[(6-chloro-3-methoxy-2′-methyl[1,1′-biphenyl]-4-yl)carbonyl]-10,11-dihydro-5H-pyrrolo[2,1-c][1,4]benzodiazepin-3-yl}carbonyl)amino]-6-oxohexylcarbamate]: 19%.

The same assay, now with this note: 100 nM, CHO cell membranes, [3H]arginine vasopressin, values without parentheses, 0.1 µM.
On to `Cc1cc(C(=O)N2Cc3ccc(C(=O)N4CCN(CCCN(C)C)CC4)n3Cc3ccccc32)ccc1-c1ccccc1C(F)(F)F` [Example 257, {10-[(2-Methyl-2′-trifluoromethyl-[1,1′-biphenyl]-4-yl)carbonyl]-10,11-dihydro-5H-pyrrolo[2,1-c][1,4]benzodiazepin-3-yl}{4-[3-(dimethylamino)propyl]-1-piperazinyl}-methanone], for which the “V2 % inhibition @ 100 nM” value amounted to 16%.
